We go through one molecule from ChEMBL document CHEMBL3758137 (Eur J Med Chem, 2016).

In data set [1] the target is Hepatocyte growth factor receptor (Homo sapiens, UniProt P08581). The data set is described as follows: Inhibition of recombinant c-Met (unknown origin) using poly (Glu,Tyr)4:1 as substrate after 60 mins by ELISA.
Data set [2] is described as follows: Solubility of compound in HBSS/HEPES buffer at pH 6.8 by nephelometric analysis in presence of 0.1% BSA. The class given is physicochemical. The settings on record: HBSS/HEPES buffer with 0.1% BSA.
Data set [3] is described as follows: Solubility of compound in HBSS/HEPES buffer at pH 7.4 by nephelometric analysis in presence of 0.1% BSA. Type of data set: physicochemical. The settings on record: HBSS/HEPES buffer with 0.1% BSA.
A short description of data set [4]: Apparent permeability from apical to basolateral side in human Caco2 cells after 35 to 95 mins by LC-MS/MS analysis. Type of data set: ADME, cell-based. The settings on record: Caco-2.
Data set [5] is described as follows: Efflux ratio of apparent permeability from basolateral to apical side over apical to basolateral side in human Caco2 cells after 35 to 95 mins by LC-MS/MS analysis. Type of data set: ADME, cell-based. The settings on record: Caco-2.
For data set [6], the system named is Liver microsome. The data set can be described thus: Intrinsic clearance in human liver microsomes at 0.1 uM after 7 to 60 mins by LC-MS/MS analysis. The class given is ADME.
The test system of data set [7] is Liver microsome. The data set is described as follows: Intrinsic clearance in rat liver microsomes at 0.1 uM after 7 to 60 mins by LC-MS/MS analysis. Type of data set: ADME.
Data set [8] in a line: AUC (0 to 8 hrs) in mouse plasma at 10 mg/kg, po. Set-up: dose 10 mg/kg, time < 8 hr, route oral. Type of data set: ADME, organism-based.
Data set [9] has as its target Macrophage-stimulating protein receptor (Homo sapiens, UniProt Q04912). The data set can be described thus: Inhibition of recombinant human Ron using poly (Glu,Tyr)4:1 as substrate after 60 mins by ELISA.
Data set [10] has as its target T1, Tyrosine-protein kinase receptor UFO (Homo sapiens, UniProt P30530).
T1 sequence (P30530 whole entry): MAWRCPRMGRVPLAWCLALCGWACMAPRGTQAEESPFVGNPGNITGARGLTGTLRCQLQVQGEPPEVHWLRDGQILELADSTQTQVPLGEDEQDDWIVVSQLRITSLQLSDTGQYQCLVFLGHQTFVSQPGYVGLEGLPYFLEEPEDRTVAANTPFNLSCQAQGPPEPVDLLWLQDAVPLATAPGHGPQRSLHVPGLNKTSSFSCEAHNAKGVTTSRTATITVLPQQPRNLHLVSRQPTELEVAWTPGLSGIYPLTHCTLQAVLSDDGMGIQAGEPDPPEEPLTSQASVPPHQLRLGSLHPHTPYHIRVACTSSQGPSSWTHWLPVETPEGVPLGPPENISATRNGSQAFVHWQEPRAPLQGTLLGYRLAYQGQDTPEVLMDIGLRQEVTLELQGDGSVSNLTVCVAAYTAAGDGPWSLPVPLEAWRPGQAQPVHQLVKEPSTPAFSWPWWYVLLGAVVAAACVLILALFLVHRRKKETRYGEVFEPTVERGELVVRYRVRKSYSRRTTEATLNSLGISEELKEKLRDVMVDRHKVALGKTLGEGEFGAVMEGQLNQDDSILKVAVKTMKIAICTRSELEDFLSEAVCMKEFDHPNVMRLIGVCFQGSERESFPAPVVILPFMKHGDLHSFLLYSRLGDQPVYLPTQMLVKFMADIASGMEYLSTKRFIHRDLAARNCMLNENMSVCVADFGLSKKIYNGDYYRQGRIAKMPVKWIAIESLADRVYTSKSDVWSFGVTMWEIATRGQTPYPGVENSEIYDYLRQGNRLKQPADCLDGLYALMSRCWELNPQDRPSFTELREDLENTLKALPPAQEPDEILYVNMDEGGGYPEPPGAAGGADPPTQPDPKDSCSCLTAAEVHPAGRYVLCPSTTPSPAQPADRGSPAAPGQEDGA
The data set can be described thus: Inhibition of recombinant human Axl using poly (Glu,Tyr)4:1 as substrate after 60 mins by ELISA.

Data set [11] addresses T2, Tyrosine-protein kinase receptor TYRO3 (Homo sapiens, UniProt Q06418).
T2 sequence (Q06418 whole entry): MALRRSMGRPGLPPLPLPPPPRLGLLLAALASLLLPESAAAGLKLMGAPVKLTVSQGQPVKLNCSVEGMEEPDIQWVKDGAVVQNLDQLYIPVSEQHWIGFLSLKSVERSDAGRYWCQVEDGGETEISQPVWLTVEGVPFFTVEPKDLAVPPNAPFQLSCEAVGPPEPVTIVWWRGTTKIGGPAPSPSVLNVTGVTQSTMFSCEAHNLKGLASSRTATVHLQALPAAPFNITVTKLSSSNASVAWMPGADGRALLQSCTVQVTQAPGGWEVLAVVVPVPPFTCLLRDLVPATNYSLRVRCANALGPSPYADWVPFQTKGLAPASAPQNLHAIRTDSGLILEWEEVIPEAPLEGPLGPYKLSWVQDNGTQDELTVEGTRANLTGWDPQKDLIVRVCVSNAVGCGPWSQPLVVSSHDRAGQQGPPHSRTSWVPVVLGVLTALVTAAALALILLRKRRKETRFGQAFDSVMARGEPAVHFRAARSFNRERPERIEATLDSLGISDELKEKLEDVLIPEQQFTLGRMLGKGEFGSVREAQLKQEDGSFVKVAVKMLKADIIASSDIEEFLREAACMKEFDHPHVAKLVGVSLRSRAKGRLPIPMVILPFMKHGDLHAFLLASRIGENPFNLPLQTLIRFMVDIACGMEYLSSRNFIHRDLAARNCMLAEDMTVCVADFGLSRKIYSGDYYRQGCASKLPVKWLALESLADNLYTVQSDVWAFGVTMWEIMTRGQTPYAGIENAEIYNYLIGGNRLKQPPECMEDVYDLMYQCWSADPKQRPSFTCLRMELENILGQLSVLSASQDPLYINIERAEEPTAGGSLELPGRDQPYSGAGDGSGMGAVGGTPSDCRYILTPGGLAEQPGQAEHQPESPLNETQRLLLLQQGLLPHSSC
The data set is described as follows: Inhibition of recombinant human TyrO3 using poly (Glu,Tyr)4:1 as substrate after 60 mins by ELISA.

Data set [12] concerns the target Fibroblast growth factor receptor 1 (Homo sapiens, UniProt P11362). The data set can be described thus: Inhibition of recombinant human FGFR1 using poly (Glu,Tyr)4:1 as substrate after 60 mins by ELISA.
Data set [13] deals with Platelet-derived growth factor receptor alpha (Homo sapiens, UniProt P16234). The data set can be described thus: Inhibition of recombinant human PDGFR-alpha using poly (Glu,Tyr)4:1 as substrate after 60 mins by ELISA.
Chain of Platelet-derived growth factor receptor alpha (P16234 whole entry): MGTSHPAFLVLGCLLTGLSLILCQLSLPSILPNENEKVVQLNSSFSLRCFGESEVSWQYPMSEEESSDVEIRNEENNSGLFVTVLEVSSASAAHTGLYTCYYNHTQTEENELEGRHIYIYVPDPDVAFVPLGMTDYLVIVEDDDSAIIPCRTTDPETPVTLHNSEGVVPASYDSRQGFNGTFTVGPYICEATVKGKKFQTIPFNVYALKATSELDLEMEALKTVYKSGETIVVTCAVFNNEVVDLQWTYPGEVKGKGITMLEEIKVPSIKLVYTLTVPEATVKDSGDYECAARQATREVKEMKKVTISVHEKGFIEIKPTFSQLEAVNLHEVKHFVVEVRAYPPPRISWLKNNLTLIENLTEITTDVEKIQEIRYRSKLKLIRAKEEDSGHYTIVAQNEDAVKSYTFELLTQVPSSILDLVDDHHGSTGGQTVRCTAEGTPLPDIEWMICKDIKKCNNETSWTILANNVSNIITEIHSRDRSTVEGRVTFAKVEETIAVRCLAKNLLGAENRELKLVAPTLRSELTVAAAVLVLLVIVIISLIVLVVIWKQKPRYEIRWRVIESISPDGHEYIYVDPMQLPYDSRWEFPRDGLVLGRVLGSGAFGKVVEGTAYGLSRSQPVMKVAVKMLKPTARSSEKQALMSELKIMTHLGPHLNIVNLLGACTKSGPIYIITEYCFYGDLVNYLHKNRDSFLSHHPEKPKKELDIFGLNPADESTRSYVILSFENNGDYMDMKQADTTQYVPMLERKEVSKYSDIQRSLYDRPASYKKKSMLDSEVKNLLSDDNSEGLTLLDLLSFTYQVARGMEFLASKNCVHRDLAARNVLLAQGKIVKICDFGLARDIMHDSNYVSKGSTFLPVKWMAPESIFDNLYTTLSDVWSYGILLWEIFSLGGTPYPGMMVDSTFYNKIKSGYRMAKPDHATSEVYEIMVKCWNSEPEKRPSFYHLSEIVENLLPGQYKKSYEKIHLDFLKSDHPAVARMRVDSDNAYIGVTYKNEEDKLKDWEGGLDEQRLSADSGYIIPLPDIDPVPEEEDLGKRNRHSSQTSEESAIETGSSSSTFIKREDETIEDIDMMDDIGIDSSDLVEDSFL
Data set [14] has as its target Vascular endothelial growth factor receptor 2 (Homo sapiens, UniProt P35968). The data set can be described thus: Inhibition of recombinant human KDR using poly (Glu,Tyr)4:1 as substrate after 60 mins by ELISA.
Data set [15] addresses Proto-oncogene tyrosine-protein kinase Src (Homo sapiens, UniProt P12931). The data set can be described thus: Inhibition of recombinant human c-Src using poly (Glu,Tyr)4:1 as substrate after 60 mins by ELISA.
In data set [16] the target is Receptor tyrosine-protein kinase erbB-2 (Homo sapiens, UniProt P04626). The data set is described as follows: Inhibition of recombinant human ErbB2 using poly (Glu,Tyr)4:1 as substrate after 60 mins by ELISA.
Chain of Receptor tyrosine-protein kinase erbB-2 (P04626 whole entry): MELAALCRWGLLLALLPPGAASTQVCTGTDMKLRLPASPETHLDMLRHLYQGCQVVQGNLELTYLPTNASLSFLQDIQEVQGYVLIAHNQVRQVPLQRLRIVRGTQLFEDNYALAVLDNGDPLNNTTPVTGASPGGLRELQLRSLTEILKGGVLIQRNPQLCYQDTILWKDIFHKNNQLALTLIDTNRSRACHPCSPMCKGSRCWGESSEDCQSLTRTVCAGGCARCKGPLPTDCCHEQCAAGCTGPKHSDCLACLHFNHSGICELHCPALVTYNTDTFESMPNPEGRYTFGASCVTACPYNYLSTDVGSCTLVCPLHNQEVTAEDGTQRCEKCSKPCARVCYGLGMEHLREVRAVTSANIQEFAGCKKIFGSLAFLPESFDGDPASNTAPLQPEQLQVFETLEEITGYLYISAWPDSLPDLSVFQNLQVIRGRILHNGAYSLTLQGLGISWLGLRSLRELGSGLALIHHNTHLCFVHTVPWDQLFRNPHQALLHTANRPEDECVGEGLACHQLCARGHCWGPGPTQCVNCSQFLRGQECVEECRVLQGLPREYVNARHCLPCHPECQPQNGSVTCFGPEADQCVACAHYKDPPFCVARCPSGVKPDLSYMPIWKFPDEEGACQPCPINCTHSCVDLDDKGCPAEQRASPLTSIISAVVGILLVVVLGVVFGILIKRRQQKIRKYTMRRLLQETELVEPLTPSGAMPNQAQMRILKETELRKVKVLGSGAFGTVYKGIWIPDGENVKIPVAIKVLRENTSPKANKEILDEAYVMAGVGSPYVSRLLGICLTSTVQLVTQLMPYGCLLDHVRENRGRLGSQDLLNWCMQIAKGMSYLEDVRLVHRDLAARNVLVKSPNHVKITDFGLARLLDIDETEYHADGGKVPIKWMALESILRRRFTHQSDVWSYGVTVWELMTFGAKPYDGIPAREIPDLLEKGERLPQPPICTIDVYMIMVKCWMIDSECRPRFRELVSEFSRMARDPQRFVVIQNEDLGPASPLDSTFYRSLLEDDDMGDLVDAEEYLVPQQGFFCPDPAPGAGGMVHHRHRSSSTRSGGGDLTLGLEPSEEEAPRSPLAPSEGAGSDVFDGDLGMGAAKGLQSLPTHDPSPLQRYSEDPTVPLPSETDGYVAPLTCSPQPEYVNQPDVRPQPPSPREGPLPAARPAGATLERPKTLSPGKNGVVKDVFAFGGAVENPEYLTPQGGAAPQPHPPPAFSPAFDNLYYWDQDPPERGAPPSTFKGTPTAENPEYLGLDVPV

Molecules are shown by their SMILES. A value given as a limit tells only on which side of the number the result lay.

Chain of Proto-oncogene tyrosine-protein kinase Src (P12931 2-536 limits assumed): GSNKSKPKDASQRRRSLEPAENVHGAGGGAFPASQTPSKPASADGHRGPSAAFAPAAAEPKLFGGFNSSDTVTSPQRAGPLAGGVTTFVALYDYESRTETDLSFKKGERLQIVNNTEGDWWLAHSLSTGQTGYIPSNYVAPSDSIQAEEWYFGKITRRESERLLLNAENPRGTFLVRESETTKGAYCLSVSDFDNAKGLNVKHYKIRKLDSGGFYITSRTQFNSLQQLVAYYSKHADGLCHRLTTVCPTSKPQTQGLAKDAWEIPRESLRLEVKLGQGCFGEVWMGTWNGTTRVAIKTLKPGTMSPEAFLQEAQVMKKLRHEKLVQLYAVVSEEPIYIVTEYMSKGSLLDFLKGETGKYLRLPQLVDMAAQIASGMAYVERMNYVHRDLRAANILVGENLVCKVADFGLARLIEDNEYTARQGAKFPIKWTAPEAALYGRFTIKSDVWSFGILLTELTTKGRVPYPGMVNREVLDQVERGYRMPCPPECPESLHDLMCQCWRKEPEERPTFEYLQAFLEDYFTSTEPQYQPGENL
Chain of Fibroblast growth factor receptor 1 (P11362 whole entry): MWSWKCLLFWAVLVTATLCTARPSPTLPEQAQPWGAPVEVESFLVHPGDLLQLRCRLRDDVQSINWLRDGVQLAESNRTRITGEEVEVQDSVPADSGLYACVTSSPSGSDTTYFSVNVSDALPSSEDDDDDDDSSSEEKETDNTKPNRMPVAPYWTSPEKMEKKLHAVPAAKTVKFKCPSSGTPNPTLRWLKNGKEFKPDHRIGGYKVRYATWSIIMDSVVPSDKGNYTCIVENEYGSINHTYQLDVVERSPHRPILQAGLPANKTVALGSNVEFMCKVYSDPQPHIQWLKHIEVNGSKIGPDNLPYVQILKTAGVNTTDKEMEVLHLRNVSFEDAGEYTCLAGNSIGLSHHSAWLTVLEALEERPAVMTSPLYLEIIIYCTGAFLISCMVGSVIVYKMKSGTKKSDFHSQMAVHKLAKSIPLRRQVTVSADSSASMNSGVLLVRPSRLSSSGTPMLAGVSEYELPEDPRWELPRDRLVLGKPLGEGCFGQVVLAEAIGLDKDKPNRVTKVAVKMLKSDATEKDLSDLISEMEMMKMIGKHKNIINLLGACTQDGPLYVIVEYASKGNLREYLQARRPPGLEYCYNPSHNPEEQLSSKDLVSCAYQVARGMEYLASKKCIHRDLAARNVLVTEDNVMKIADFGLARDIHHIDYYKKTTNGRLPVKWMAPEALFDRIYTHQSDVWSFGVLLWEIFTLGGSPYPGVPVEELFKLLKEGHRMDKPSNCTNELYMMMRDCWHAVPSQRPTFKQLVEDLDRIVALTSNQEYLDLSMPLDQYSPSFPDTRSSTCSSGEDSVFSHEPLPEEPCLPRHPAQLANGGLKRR
Chain of Vascular endothelial growth factor receptor 2 (P35968 whole entry): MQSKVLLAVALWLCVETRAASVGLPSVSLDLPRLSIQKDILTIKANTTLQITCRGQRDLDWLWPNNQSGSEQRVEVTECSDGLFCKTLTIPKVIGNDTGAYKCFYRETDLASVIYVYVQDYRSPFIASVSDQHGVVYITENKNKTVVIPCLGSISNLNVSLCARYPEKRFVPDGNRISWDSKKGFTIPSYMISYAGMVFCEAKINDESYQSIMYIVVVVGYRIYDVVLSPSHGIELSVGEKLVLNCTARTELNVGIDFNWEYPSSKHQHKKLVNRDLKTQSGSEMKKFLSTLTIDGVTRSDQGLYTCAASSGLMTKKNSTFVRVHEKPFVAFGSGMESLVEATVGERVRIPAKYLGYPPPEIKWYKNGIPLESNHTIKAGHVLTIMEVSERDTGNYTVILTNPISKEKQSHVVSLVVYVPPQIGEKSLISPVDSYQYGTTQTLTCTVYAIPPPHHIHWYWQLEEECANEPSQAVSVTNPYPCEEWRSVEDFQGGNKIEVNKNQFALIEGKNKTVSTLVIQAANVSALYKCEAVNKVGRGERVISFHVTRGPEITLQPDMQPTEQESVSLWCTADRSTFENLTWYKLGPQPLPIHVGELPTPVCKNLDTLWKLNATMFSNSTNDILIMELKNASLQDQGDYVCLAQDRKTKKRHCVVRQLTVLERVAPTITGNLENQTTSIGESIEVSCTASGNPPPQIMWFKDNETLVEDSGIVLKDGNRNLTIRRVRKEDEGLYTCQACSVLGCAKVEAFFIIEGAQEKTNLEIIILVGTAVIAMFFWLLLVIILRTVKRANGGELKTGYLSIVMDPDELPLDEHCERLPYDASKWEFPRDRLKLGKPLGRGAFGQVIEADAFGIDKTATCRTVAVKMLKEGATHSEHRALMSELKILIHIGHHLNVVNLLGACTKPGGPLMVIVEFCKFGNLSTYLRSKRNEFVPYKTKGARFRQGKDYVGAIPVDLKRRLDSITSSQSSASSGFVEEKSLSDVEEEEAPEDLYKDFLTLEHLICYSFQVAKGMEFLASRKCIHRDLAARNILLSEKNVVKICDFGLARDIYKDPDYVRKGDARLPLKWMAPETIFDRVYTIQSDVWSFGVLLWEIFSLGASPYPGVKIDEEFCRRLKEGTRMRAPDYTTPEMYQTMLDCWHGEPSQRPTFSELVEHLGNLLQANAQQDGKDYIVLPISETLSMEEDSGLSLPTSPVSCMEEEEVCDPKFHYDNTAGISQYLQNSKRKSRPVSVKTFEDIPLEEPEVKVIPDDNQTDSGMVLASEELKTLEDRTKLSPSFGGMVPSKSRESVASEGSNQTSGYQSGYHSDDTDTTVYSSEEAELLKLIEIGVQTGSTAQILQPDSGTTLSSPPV

Take `Cn1cc(-c2cnc(Nc3cccc(Cn4nc(-c5cnn(C)c5)ccc4=O)c3)nc2)cn1`: the half-maximal inhibitory concentration (IC50) is 7.5 nM in data set [1]; over 1000 nM in [9]; over 1000 nM in [10]; over 1000 nM in [11]; over 1000 nM in data set [12]; over 1000 nM in [13]. In addition, the concentration for half-maximal inhibition (IC50) in data set [14], in [15] and in data set [16] was over 1000 nM in each case. Also, the solubility (kinetic) in [2] and in data set [3] was 51 µM each time. For the same molecule, in [4], the Papp A→B was 17 ×10⁻⁶ cm/s. In addition, the efflux ratio in [5] came to 1.3. Besides, the CLH came to 9 mL/min/g in data set [6] and 36 mL/min/g in [7]. Moreover, the area under the curve AUC(0-t) at 8 h in data set [8] amounted to 1750 ng·h/mL.
